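Values below derive from 48-hour exposures of cells grown in 96-well plates, with endpoints linearly interpolated between the two concentrations bracketing the appropriate inhibition level. The concentration for 50% growth inhibition is given as GI50. TGI denotes the concentration required for complete inhibition of growth.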

The source of these data is PubChem BioAssay (NCI).

Some test systems named below: 786-0 renal; ACHN renal; HCT-116 colon; NCI-H460 lung; SF-539 CNS; SK-MEL-28 melanoma; SW-620 colon; UO-31 renal; RXF 393 renal.
Holding throughout (test): DTP human tumour cell line panel, 48 h

As for `Oc1[nH]c2ccccc2c1N=NC(=S)NCc1ccccn1`, the TGI came to 13.6 µM with 786-0 renal; 2.25 µM in the assay on ACHN renal; 15.1 µM with HCT-116 colon; 11.4 µM with NCI-H460 lung; 5.06 µM in the assay on SF-539 CNS; 21.5 µM in the assay with SK-MEL-28 melanoma. Further, the figures for the TGI in the assay with SW-620 colon and in the assay with UO-31 renal were 22.3 µM and 6.56 µM, respectively.
For the compound `C/C(=N/NC(=O)c1ccccc1Nc1ccccc1C(=O)N/N=C(\C)c1ccc(C)cc1)c1ccc(C)cc1`, the TGI in the assay on 786-0 renal, with ACHN renal, in the assay with HCT-116 colon, in the assay on NCI-H460 lung, in the assay with RXF 393 renal and in the assay with SK-MEL-28 melanoma was over 100 µM throughout. In addition, the TGI with SW-620 colon and in the assay with UO-31 renal was over 100 µM each time.
`CN1CCN(C2CC(=O)c3c(Cl)sc(Cl)c32)CC1` (stereo not drawn): the TGI was 21.8 µM with 786-0 renal; 36.6 µM in the assay on ACHN renal; 19.2 µM with HCT-116 colon; over 75.3 µM in the assay on NCI-H460 lung; 49.6 µM in the assay with SF-539 CNS; 20.2 µM in the assay on SK-MEL-28 melanoma. Further, the TGI was 22.2 µM in the assay with SW-620 colon and 17 µM in the assay with UO-31 renal.
Regarding `COC1OC(=O)C(OC)C(OC)C1OC` (stereo not drawn), the TGI in the assay with 786-0 renal, in the assay on ACHN renal, in the assay with HCT-116 colon, in the assay with NCI-H460 lung, in the assay on SF-539 CNS and in the assay with SK-MEL-28 melanoma was over 100 µM throughout. Besides, the TGI in the assay on SW-620 colon and in the assay on UO-31 renal was over 100 µM throughout.
As for `CCOC(=O)N1c2c(c3ccccc3n2C(=O)OCC)C(=O)C(OC)N1C(=O)OCC` (stereo not drawn), the TGI in the assay on 786-0 renal is over 100 µM; in the assay with ACHN renal, 92.7 µM; in the assay with HCT-116 colon it was 86.9 µM; with NCI-H460 lung, over 100 µM; with SF-539 CNS, 74.7 µM; in the assay on SK-MEL-28 melanoma, 53.6 µM. The TGI in the assay with SW-620 colon and in the assay on UO-31 renal was over 100 µM in each case.
Consider `O=S1(=O)OCCOS(=O)(=O)C1S(=O)(=O)c1cccc2ccccc12`, for which the TGI in the assay with 786-0 renal is over 100 µM; with ACHN renal, over 100 µM; in the assay on HCT-116 colon, 57.1 µM; in the assay on NCI-H460 lung it was over 100 µM; with SK-MEL-28 melanoma it was over 100 µM; in the assay on SW-620 colon, over 100 µM. The same compound displayed a TGI in the assay on UO-31 renal of over 100 µM.
For the compound `S=C1NNC(=S)NN1`, the TGI with 786-0 renal, in the assay on ACHN renal, with HCT-116 colon, with NCI-H460 lung, in the assay with SF-539 CNS and with SK-MEL-28 melanoma was over 1 µM each time. The TGI in the assay with SW-620 colon and in the assay with UO-31 renal was over 1 µM throughout.
Regarding `Cc1nc2ccccc2nc1N1CCCC1`, the TGI with 786-0 renal, in the assay with ACHN renal, with HCT-116 colon, with NCI-H460 lung, in the assay on RXF 393 renal and in the assay with SK-MEL-28 melanoma was over 100 µM throughout. The TGI in the assay with SW-620 colon was over 100 µM.
Take `COc1ccc(C2=C(N)c3cc(OC)ccc3C2=O)cc1`: the TGI in the assay on 786-0 renal, in the assay on ACHN renal, with HCT-116 colon, in the assay with NCI-H460 lung, in the assay on SF-539 CNS and in the assay with SK-MEL-28 melanoma was over 100 µM in each case. In the assay on SW-620 colon, this compound registered a TGI of over 100 µM.
In the case of `CC1=CCC(=O)[C@]2(C)C(CC(=O)O)[C@]3(C)C4=C(C)C(c5ccoc5)C[C@@H]4O[C@@H]3[C@H](O)[C@@H]12` (stereo partly drawn), the TGI with 786-0 renal, with ACHN renal, in the assay on HCT-116 colon, in the assay on NCI-H460 lung, in the assay on SF-539 CNS and with SK-MEL-28 melanoma was over 100 µM throughout. Besides, the TGI in the assay on SW-620 colon and in the assay on UO-31 renal was over 100 µM throughout.
Turning to `COc1ccc(-c2nc3ncccn3c2-c2ccc(S(C)(=O)=O)cc2)cc1`, the TGI with 786-0 renal, with ACHN renal, in the assay on HCT-116 colon, with NCI-H460 lung, in the assay on SF-539 CNS and in the assay with SK-MEL-28 melanoma was over 100 µM throughout. In addition, the TGI in the assay on SW-620 colon and in the assay with UO-31 renal was over 100 µM throughout.
Consider `CC(=O)c1c2c(cc3c1CCC3)CCC2`, for which the TGI in the assay with 786-0 renal, in the assay on ACHN renal, in the assay with HCT-116 colon, with NCI-H460 lung, with SF-539 CNS and in the assay with SK-MEL-28 melanoma was over 100 µM in each case. The TGI in the assay on SW-620 colon and in the assay with UO-31 renal was over 100 µM in each case.
Consider `CC(=O)O[C@H]1CC[C@]2(C=O)[C@H]3CC[C@]4(C)[C@@H](C5=CC(=O)OC5)CC[C@]4(O)[C@@H]3CC[C@]2(O)C1`, for which the TGI with ACHN renal stood at 0.557 µM; in the assay on HCT-116 colon, 0.5 µM; in the assay on NCI-H460 lung it was 0.274 µM; in the assay with SF-539 CNS, 0.26 µM; in the assay with SK-MEL-28 melanoma, 3.22 µM; in the assay with SW-620 colon it was 4.85 µM. In addition, the TGI in the assay with UO-31 renal came to 1.48 µM.
On to `COc1ccc(Nc2ccnc3cc(Cl)ccc23)cc1CN(CCCl)CCCl`, for which the GI50 is 1.14 µM in the assay on HCT-116 colon, 0.532 µM in the assay with NCI-H460 lung, 3.59 µM with SK-MEL-28 melanoma and 1.59 µM in the assay with SW-620 colon. In addition, the TGI turned out to be 3.84 µM in the assay with HCT-116 colon, 2.96 µM with NCI-H460 lung, 14.9 µM in the assay with SK-MEL-28 melanoma and 7.38 µM in the assay with SW-620 colon.
